Laboratory results reported in ChEMBL document CHEMBL4373747 (ACS Med Chem Lett, 2020).

Experiments:
MV4-11 [1] = experiment: Induction of apoptosis in human MV4-11 cells assessed as late apoptotic cells at 1 uM incubated for 18 hrs by annexin V FITC and PI based flow cytometry (reference value: 9.2 to 9.63 %); assay type: functional
MV4-11 [2] = experiment: Induction of apoptosis in human MV4-11 cells assessed as late apoptotic cells at 2 uM incubated for 18 hrs by annexin V FITC and PI based flow cytometry (reference value: 9.2 to 9.63 %); assay type: functional
Histone deacetylase 2 = Histone deacetylase 2 (Homo sapiens, UniProt Q92769); experiment: Inhibition of recombinant full length human HDAC2 expressed in baculovirus infected Sf9 cells using FAM-RHKK-Ac as substrate incubated for 17 hrs by electrophoretic mobility shift assay
Chain of Histone deacetylase 2 (Q92769 whole entry): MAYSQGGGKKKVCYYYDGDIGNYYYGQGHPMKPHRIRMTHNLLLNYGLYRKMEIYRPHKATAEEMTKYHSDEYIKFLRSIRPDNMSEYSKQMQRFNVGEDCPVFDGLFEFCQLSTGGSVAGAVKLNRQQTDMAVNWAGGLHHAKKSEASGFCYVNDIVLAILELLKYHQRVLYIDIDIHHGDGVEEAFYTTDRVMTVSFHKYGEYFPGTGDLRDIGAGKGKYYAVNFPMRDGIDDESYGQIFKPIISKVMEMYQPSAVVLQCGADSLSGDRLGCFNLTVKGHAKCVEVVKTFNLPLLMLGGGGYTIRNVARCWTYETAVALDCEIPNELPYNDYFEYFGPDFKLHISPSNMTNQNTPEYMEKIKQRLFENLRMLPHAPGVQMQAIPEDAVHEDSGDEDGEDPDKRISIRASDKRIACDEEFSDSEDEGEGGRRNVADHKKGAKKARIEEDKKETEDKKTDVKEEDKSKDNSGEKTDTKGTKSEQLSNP

Histone deacetylase 8 = molecular target: T1, Histone deacetylase 8 (Homo sapiens, UniProt Q9BY41); experiment: Inhibition of recombinant full length human HDAC8 expressed in baculovirus infected Sf9 cells using FAM-RHKK-TFAc as substrate incubated for 3 hrs by electrophoretic mobility shift assay
T1 sequence (Q9BY41 whole entry): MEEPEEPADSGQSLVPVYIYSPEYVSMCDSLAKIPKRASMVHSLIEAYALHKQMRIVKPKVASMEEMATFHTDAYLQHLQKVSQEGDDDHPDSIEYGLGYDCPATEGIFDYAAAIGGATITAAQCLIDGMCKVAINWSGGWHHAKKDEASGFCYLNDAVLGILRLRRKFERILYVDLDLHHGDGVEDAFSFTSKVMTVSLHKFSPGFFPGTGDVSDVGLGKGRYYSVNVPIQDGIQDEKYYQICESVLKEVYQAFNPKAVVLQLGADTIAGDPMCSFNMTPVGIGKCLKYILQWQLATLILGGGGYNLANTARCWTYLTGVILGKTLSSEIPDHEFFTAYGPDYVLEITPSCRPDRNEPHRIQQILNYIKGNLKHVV

[3] = Oral bioavailability in CD-1 mouse at 20 mg/kg measured upto 24 hrs by LC/MS/MS analysis; assay type: ADME, organism-based; details: in vivo
MV4-11 [4] = experiment: Induction of apoptosis in human MV4-11 cells assessed as viable cells at 0.25 uM incubated for 18 hrs by annexin V FITC and PI based flow cytometry (reference value: 53.01 to 53.07 %); assay type: functional; details: Homo sapiens, MV4-11, 18 h; read-out: Activity
MV4-11 [5] = experiment: Induction of apoptosis in human MV4-11 cells assessed as late apoptotic cells at 0.25 uM incubated for 18 hrs by annexin V FITC and PI based flow cytometry (reference value: 9.2 to 9.63 %); assay type: functional
MV4-11 [6] = experiment: Induction of apoptosis in human MV4-11 cells assessed as late apoptotic cells at 0.5 uM incubated for 18 hrs by annexin V FITC and PI based flow cytometry (reference value: 9.2 to 9.63 %); assay type: functional
HeLa = experiment: Cytotoxicity against human HeLa cells assessed as reduction in cell viability incubated for 72 hrs by cell-titer blue assay; assay type: functional, cell-based
[7] = Cytotoxicity against human MRC9 cells assessed as reduction in cell viability incubated for 72 hrs by cell-titer blue assay; assay type: cell-based; details: MRC9, 72 h
[8] = Efflux ratio of apparent permeability in human Caco2 cells incubated for 2 hrs by LC/MS analysis; assay type: ADME, cell-based, Caco-2; details: Caco-2
[9] = molecular target: T2, Protein deacetylase HDAC6 (Homo sapiens) (UniProt Q9UBN7); experiment: Inhibition of HDAC6 in human MV4-11 cells assessed as increase in acetylated alpha-tubulin incubated for 6 hrs by Western blot analysis; assay type: cell-based
T2 sequence (whole entry): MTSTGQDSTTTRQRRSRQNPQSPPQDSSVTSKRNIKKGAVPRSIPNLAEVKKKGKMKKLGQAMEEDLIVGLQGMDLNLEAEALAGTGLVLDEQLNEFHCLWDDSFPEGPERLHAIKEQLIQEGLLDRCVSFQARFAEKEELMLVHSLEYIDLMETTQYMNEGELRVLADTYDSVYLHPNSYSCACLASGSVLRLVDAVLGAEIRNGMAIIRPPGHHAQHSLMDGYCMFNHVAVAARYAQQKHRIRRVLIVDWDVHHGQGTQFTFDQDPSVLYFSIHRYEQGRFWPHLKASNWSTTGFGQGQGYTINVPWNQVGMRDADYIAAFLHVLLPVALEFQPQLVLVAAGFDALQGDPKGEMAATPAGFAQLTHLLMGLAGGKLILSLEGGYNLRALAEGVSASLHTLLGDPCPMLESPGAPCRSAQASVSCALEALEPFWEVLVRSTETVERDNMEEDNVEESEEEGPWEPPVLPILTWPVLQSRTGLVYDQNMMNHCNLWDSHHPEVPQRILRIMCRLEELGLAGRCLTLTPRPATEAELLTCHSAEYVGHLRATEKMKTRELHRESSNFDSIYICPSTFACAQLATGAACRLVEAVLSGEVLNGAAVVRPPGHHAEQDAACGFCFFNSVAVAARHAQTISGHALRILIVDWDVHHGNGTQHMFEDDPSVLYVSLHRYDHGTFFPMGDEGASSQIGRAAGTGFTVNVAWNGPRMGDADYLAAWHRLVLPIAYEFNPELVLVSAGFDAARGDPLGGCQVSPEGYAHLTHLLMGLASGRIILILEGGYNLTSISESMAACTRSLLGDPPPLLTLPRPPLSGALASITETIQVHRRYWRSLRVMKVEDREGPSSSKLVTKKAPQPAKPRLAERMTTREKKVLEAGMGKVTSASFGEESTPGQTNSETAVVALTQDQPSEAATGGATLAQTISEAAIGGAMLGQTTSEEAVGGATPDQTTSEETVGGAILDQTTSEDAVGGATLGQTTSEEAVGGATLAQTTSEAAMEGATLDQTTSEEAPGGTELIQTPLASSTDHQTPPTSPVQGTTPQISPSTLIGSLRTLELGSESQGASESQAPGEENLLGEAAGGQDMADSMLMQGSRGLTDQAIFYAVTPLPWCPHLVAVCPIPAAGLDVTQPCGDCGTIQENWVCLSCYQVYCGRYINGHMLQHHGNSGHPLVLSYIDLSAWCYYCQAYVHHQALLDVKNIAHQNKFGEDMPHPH

MV4-11 [10] = experiment: Induction of apoptosis in human MV4-11 cells assessed as late apoptotic cells at 4 uM incubated for 18 hrs by annexin V FITC and PI based flow cytometry (reference value: 9.2 to 9.63 %); assay type: functional
[11] = Apparent permeability from apical to basolateral side in human Caco2 cells incubated for 2 hrs by LC/MS analysis; assay type: ADME, cell-based, Caco-2; details: Caco-2
[12] = Stability in ICR/CD1 mouse hepatocytes assessed as half life at 1 uM measured upto 120 mins by LCMS analysis; assay type: ADME, cell-based, Hepatocyte; details: 2 h
MDA-MB-468 = experiment: Cytotoxicity against human MDA-MB-468 cells assessed as reduction in cell viability incubated for 72 hrs by cell-titer blue assay; assay type: functional, cell-based; details: MDA-MB-468, 72 h
Histone deacetylase 3 = Histone deacetylase 3 (Homo sapiens, UniProt O15379); experiment: Inhibition of recombinant full length human HDAC3 expressed in baculovirus infected Sf9 cells using FAM-RHKK-Ac as substrate incubated for 3 hrs by electrophoretic mobility shift assay
Chain of Histone deacetylase 3 (O15379 whole entry): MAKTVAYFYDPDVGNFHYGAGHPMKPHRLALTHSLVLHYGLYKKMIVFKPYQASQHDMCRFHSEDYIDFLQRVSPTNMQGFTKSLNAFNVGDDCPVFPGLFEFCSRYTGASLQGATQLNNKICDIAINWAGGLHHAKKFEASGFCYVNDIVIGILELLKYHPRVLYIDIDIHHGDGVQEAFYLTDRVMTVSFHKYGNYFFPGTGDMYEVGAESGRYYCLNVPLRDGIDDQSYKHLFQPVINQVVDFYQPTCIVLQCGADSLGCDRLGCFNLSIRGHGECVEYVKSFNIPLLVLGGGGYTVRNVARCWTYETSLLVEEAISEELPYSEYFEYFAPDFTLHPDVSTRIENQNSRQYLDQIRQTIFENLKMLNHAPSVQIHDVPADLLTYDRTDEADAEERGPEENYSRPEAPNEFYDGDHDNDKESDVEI

MV4-11 [13] = experiment: Induction of apoptosis in human MV4-11 cells assessed as late apoptotic cells incubated for 18 hrs by annexin V FITC and PI based flow cytometry; assay type: functional, cell-based

In the case of `CC(C)(C)c1ccc(C(=O)Nc2ccc(C(=O)NO)cc2)cc1`, the Activity (MV4-11 [1]) is reported as 16.08%, the Activity (MV4-11 [2]) is reported as 30.97% and the IC50 (Histone deacetylase 2) is reported as greater than 1000 nM. For the same compound, the IC50 (Histone deacetylase 8) was 245 nM, the bioavailability [3] was 19.8% and the viability at 0.25 µM (MV4-11 [4]) was 57.5%. The Activity (MV4-11 [5]) was 8.74%, the Activity (MV4-11 [6]) was 11.7% and the IC50 (HeLa) was 2530 nM. The IC50 [7] was 33200 nM, the efflux ratio at 2 h [8] was 0.64 and the inhibition [9] was “Dose-dependent effect”. For the same compound, the Activity (MV4-11 [10]) was 38.48%, the Papp A→B at 2 h [11] was 3.45 ×10⁻⁶ cm/s and the t1/2 [12] was 28.3 min. The IC50 (MDA-MB-468) was greater than 50000 nM, the IC50 (Histone deacetylase 3) was 187 nM and the Activity (MV4-11 [13]) was “Dose-dependent effect”.
